According to publication PMC7128415 (Journal of Clinical Virology, 2004):
Values after ≈ are worked out from the molar mass of the structure shown. Read-outs that look alike come from different tables or passages of the source.

Legend:
in vitro = details: rhesus monkey
SARS coronavirus [1] = assay: microbe, parasite or virus in culture; format: cell-based; details: Severe acute respiratory syndrome coronavirus, Vero, read-out: EC50 (plaque reduction assay)
SARS coronavirus [2] = format: cell-based
SARS coronavirus [3] = test system: SARS coronavirus
[4] = test system: HIV-1 reverse transcriptase; details: cited from earlier work
HIV-1 = details: cited from earlier work
[5] = in vivo, cited from earlier work
[6] = human, in vivo, po
SARS coronavirus [7] = assay: microbe, parasite or virus in culture; details: Severe acute respiratory syndrome coronavirus, FRhK-4, 48 h, read-out: EC50 at 48 h
rhinovirus = details: in vivo; cited from earlier work
CMV = details: human, in vivo; cited from earlier work
[8] = test system: rhinovirus, coronavirus, and respiratory syncytial virus; details: in vivo; cited from earlier work
genital herpes = details: in vivo; cited from earlier work
SARS-associated virus = details: cited from earlier work
various viruses = details: cited from earlier work

With `NC(=O)c1ncn([C@@H]2O[C@H](CO)[C@@H](O)[C@H]2O)n1` [Ribavirin, ribavirin] the CC50 (in vitro) was greater than 1000 mg/L, the EC50 (SARS coronavirus [1]) was 50 mg/L (≈ 205 µM) and the “activity in Vero-E6 cell line compared with fRhK-4” value (“activity … compared with fRhK-4” below) (SARS coronavirus [2]) was “less active”. For the same molecule, the “SI = CC50/EC50 at 48 h” value (SARS coronavirus [3]) was 5 to >80, the antiviral activities (SARS coronavirus [3]) was “detectable antiviral activities” and the antiviral activity (SARS coronavirus [3]) was “showed antiviral activity”. For the same molecule, the “inhibitory activities by neutralization tests” value (SARS coronavirus [3]) was “detectable inhibitory activities”.

With `Cc1cn([C@H]2C[C@H](N=[N+]=[N-])[C@@H](CO)O2)c(=O)[nH]c1=O` [zidovudine] the “inhibitory activities in initial screening” value (SARS coronavirus [3]) was “did not reveal inhibitory activities”.

For `O=C(O)[C@H]1O[C@@H](Oc2cc3oc(-c4ccccc4)cc(=O)c3c(O)c2O)[C@H](O)[C@@H](O)[C@@H]1O` [Baicalin, baicalin], the “inhibition of HIV-1 reverse transcriptase” value [4] is given as “known to inhibit HIV-1 reverse transcriptase”, the Antiviral effect (HIV-1) is given as “Inhibition of HIV-1” and the “inhibition of HIV-1” value (HIV-1) is given as “shown to inhibit HIV-1”. The CC50 (in vitro) was greater than 100 mg/L, the EC50 (SARS coronavirus [1]) was 11 mg/L (≈ 24.6 µM) and the “Serum level (after oral administration), Cmax” value ([5]; human, po) was “Cmax = 60 ng/ml (189.8 mg per person, in human). The amount (i.e., 189.8 mg per person) used for the experiment is very low”. For the same molecule, the “Half life (in humans)” value ([5]; human) was “∼3 h”, the “Serum level (after intravenous administration), Cmax” value [5] was “Cmax = 74 μg/ml (360 mg per person)” and the “activity … compared with fRhK-4” value (SARS coronavirus [2]) was “less active”. The serum concentration [6] was 0.47 µg/mL, the EC50 (SARS coronavirus [7]) was 12.5 to 25 mg/L (≈ 28 to 56 µM) and the “EC50 at 48 h” value (SARS coronavirus [3]) was 12.5 mg/L (≈ 28 µM). The “SI = CC50/EC50 at 48 h” value (SARS coronavirus [3]) was greater than 4 to 8, the antiviral activities (SARS coronavirus [3]) was “detectable antiviral activities” and the antiviral activity (SARS coronavirus [3]) was “showed antiviral activity”. For the same molecule, the “inhibitory activities by neutralization tests” value (SARS coronavirus [3]) was “detectable inhibitory activities”.

In the case of `Cc1cn([C@H]2C=C[C@@H](CO)O2)c(=O)[nH]c1=O` [stavudine], the “inhibitory activities in initial screening” value (SARS coronavirus [3]) is reported as “did not reveal inhibitory activities”.

In the case of `Nc1nc(NC2CC2)c2ncn([C@H]3C=C[C@@H](CO)C3)c2n1` [abacavir], the “inhibitory activities in initial screening” value (SARS coronavirus [3]) is reported as “did not reveal inhibitory activities”.

With `Nc1nc2c(ncn2COCCO)c(=O)[nH]1` [acyclovir] the “inhibitory activities in initial screening” value (SARS coronavirus [3]) was “did not reveal inhibitory activities”.

For `CC(C)c1nc(CN(C)C(=O)N[C@H](C(=O)N[C@@H](Cc2ccccc2)C[C@H](O)[C@H](Cc2ccccc2)NC(=O)OCc2cncs2)C(C)C)cs1` [ritonavir], the “inhibitory activities in initial screening” value (SARS coronavirus [3]) was “did not reveal inhibitory activities”.

For `Cc1cccc(C)c1OCC(=O)N[C@@H](Cc1ccccc1)[C@@H](O)C[C@H](Cc1ccccc1)NC(=O)[C@H](C(C)C)N1CCCNC1=O` [Lopinavir, lopinavir], the CC50 (in vitro) was 32 mg/L (≈ 50.9 µM), the EC50 (SARS coronavirus [1]) was 6 mg/L (≈ 9.54 µM) and the “activity … compared with fRhK-4” value (SARS coronavirus [2]) was “less active”. For the same molecule, the EC50 (SARS coronavirus [7]) was 1 to 4 mg/L (≈ 1.59 to 6.36 µM), the antiviral activities (SARS coronavirus [3]) was “detectable antiviral activities” and the antiviral activity (SARS coronavirus [3]) was “showed antiviral activity”. The “inhibitory activities by neutralization tests” value (SARS coronavirus [3]) was “detectable inhibitory activities”.

With `CC(N)C12CC3CC(CC(C3)C1)C2` (stereo not shown) [Rimantadine, rimantadine] the CC50 (in vitro) was 64 mg/L (≈ 357 µM), the EC50 (SARS coronavirus [1]) was 7 mg/L (≈ 39 µM) and the “activity … compared with fRhK-4” value (SARS coronavirus [2]) was “more active”. For the same molecule, the EC50 (SARS coronavirus [7]) was 8 to 16 mg/L (≈ 44.6 to 89.2 µM), the “EC50 at 48 h” value (SARS coronavirus [3]) was 16 mg/L (≈ 89.2 µM) and the antiviral activities (SARS coronavirus [3]) was “detectable antiviral activities”. The antiviral activity (SARS coronavirus [3]) was “showed antiviral activity” and the “inhibitory activities by neutralization tests” value (SARS coronavirus [3]) was “detectable inhibitory activities”.

In the case of interferon-alpha, the “protection against rhinovirus-induced common cold” value (rhinovirus) is listed as “protective”, the “preventing CMV infections or treating CMV pneumonia” value (CMV) is listed as “not effective” and the “protection against experimental human infection” value [8] is listed as “protect”. For the same molecule, the “reduction in symptoms or lesion duration of genital herpes” value (genital herpes) was “did not produce a consistent reduction”.

In the case of `CC1(C)[C@@H](O[C@H]2O[C@H](C(=O)O)[C@@H](O)[C@H](O)[C@H]2O[C@@H]2O[C@H](C(=O)O)[C@@H](O)[C@H](O)[C@H]2O)CC[C@]2(C)[C@H]3C(=O)C=C4[C@@H]5C[C@@](C)(C(=O)O)CC[C@]5(C)CC[C@@]4(C)[C@]3(C)CC[C@@H]12` [Glycyrrhizin, glycyrrhizin], the Antiviral effect (SARS-associated virus) is listed as “Inhibition of SARS-associated virus”, the “activity in Vero-E6 cell lines” value (SARS-associated virus) is listed as “reported to be active” and the “antiviral activity against SARS coronavirus” value (SARS-associated virus) is listed as “significant antiviral activity”. The CC50 (in vitro) was greater than 400 mg/L, the “Half life (in humans)” value ([5]; human) was “∼10 h” and the “Serum level (after intravenous administration), Cmax” value [5] was “Cmax = 80 μg/ml (200 mg per person)”. For the same molecule, the “activity … compared with fRhK-4” value (SARS coronavirus [2]) was “more active”, the EC50 (SARS coronavirus [7]) was greater than 400 mg/L and the antiviral activity (SARS coronavirus [3]) was “showed antiviral activity”. The “inhibitory activities in initial screening” value (SARS coronavirus [3]) was “not detectable”.

In the case of `NC12CC3CC(CC(C3)C1)C2` [amantadine], the “inhibitory activities in initial screening” value (SARS coronavirus [3]) is reported as “did not reveal inhibitory activities”.

With `O=C(O)P(=O)(O)O` [foscarnet] the “inhibitory activities in initial screening” value (SARS coronavirus [3]) was “did not reveal inhibitory activities”.

In the case of `O=C(/C=C/c1ccc(O)c(O)c1)O[C@@H]1C[C@](O)(C(=O)O)C[C@@H](O)[C@H]1O` [Chlorogenic acid, chlorogenic acid], the “Serum level (after intravenous administration), Cmax” value [5] is given as “Cmax = 34 μg/ml (24 mg per person)”, the Antiviral effect (various viruses) is given as “Inhibition of various viruses” and the “inhibitory activities in initial screening” value (SARS coronavirus [3]) is given as “not detectable”.

With `Cc1ccnc2c1NC(=O)c1cccnc1N2C1CC1` [nevirapine] the “inhibitory activities in initial screening” value (SARS coronavirus [3]) was “did not reveal inhibitory activities”.

In the case of `Nc1ccn(C[C@@H](CO)OCP(=O)(O)O)c(=O)n1` [cidofovir], the “inhibitory activities in initial screening” value (SARS coronavirus [3]) is reported as “did not reveal inhibitory activities”.

For `Nc1nc(O)c2ncn(COC(CO)CO)c2n1` [ganciclovir], the “inhibitory activities in initial screening” value (SARS coronavirus [3]) was “did not reveal inhibitory activities”.

In the case of `C[C@H]1[C@H](OC(=O)CCC(=O)O)O[C@@H]2O[C@@]3(C)CC[C@H]4[C@H](C)CC[C@@H]1[C@@]24OO3` [artesunate], the “inhibitory activities in initial screening” value (SARS coronavirus [3]) is reported as “not detectable”.

B1: Interferon-gamma: Interferon-gamma, reported in the literature (protein, UniProt P01579 24-161, looked up)
Interferon gamma: QDPYVKEAENLKKYFNAGHSDVADNGTLFLGILKNWKEESDRKIMQSQIVSFYFKLFKNFKDDQSIQKSVETIKEDMNVKFFNSNKKKRDDFEKLTNYSVTDLNVQRKAIHELIQVMAELSPAAKTGKRKRSQMLFRG
In the case of B1, the “antiviral activity against SARS coronavirus” value (SARS-associated virus) is listed as “not to possess antiviral activity”.
